Assay results taken from patent US6462060B2, “Heterocyclic-hydroxyimino-fluorene nuclei compounds and pharmaceutical compositions for inhibiting protein kinases, and methods for their use” (Agouron Pharmaceuticals, Inc., priority 2000, dated 2002).

Tests used:
[1] = target: T1, CDK4/Cyclin D3 complex (Homo sapiens, UniProt P11802); assay: CDK4/Cyclin D assay (32P incorporation into Rb fragment); type: biochemical; details: apparent Ki; 50 nM CDK4/Cyclin D3 complex, 25 μM ATP
T1 construct: made in house; host or cells: insect cells co-infected with baculovirus expression vectors
T1 sequence (P11802 whole entry, the tested form may be a part): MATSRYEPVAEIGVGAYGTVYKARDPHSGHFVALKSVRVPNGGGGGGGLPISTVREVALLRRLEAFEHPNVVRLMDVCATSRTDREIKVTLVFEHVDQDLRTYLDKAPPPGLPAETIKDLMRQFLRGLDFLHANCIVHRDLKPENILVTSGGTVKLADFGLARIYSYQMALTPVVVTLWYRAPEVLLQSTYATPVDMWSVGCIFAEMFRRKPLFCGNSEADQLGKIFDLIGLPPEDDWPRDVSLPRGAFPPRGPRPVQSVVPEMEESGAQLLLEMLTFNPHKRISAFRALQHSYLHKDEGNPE
T1 sequence (P30281 whole entry partner, the tested form may be a part): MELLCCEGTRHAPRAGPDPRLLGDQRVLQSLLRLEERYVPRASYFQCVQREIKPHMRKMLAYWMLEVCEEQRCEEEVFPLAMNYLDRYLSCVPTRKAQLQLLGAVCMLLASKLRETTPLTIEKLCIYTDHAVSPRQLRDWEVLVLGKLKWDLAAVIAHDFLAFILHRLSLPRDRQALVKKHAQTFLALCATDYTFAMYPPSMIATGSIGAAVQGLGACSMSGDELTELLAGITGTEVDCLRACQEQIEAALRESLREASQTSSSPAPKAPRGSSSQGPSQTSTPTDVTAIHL
Description: CDK4/Cyclin D Construct for Assay: A complex of human CDK4 and cyclin D3, or a complex of cyclin D1 and a fusion protein of human CDK4 and glutathione-S-transferase (GST-CDK4), was purified using traditional biochemical chromatographic techniques from insect cells that had been co-infected with the corresponding baculovirus expression vectors.
(§1) CDK2/Cyclin A and CDK4/Cyclin D Assays
Cyclin-dependent kinase activity was measured by quantifying the enzyme-catalyzed, time-dependent incorporation of radioactive phosphate from [^32P]ATP into a recombinant fragment of the retinoblastoma protein. Unless noted otherwise, assays were performed in 96-well plates in a total volume of 50 μL, in the presence of 10 mM HEPES (N-[2-hydroxyethyl]piperazine-N′-[2-ethanesulfonic acid]) (pH 7.4), 10 mM MgCl2, 25 μM adenosine triphosphate (ATP), 1 mg/mL ovalbumin, 5 μg/mL leupeptin, 1 mM dithiothreitol, 10 mM β-glycerophosphate, 0.1 mM sodium vanadate, 1 mM sodium fluoride, 2.5 mM ethylene glycol-bis(β-aminoethyl ether)-N,N,N′N′-tetraacetic acid (EGTA), 2% (v/v) dimethylsulfoxide, and 0.03-0.2 μCi [^32P]ATP. The substrate (0.3-0.5 μg) was purified recombinant retinoblastoma protein fragment (Rb) (residues 386-928 of the native retinoblastoma protein; 62.3 kDa, containing the majority of the phosphorylation sites found in the native 1 06kDa protein, as well as a tag of six histidine residues for ease of purification). Reactions were initiated with CDK2 (150 nM CDK2/Cyclin A complex) or CDK4 (50 nM CDK4/Cyclin D3 complex), incubated at 30° C., and terminated after 20 minutes by the addition of ethylenediaminetetraacetic acid (EDTA) to 250 mM. The phosphorylated substrate was then captured on a nitrocellulose membrane using a 96-well filtration manifold, and unincorporated radioactivity was removed by repeated washing with 0.85% phosphoric acid. Radioactivity was quantified by exposing the dried nitrocellulose membranes to a phosphorimager. Apparent Ki values were measured by assaying enzyme activity in the presence of different compound concentrations and subtracting the background radioactivity measured in the absence of enzyme. The kinetic parameters (kcat, Km for ATP) were measured for each enzyme under the usual assay conditions by determining the dependence of initial rates on ATP concentration. The data were fit to an equation for competitive inhibition using Kaleidagraph (Synergy Software), or were fit to an equation for competitive tight-binding inhibition using the software KineTic (BioKin, Ltd.). The specific activity of CDK4 was the same whether complexed to full-length cyclin D3 or the truncated Cyclin D3 construct; both complexes also yielded very similar Ki values for selected inhibitors.

[2] = target: T2, CHK-1 KH289 (Homo sapiens, UniProt O14757); assay: CHK-1 assay (coupled spectrophotometric, Syntide-2); type: biochemical; details: for Ki: 10 nM CHK-1 KH289, 0.15 mM ATP
T2 construct: CHK-1 KH289 contains residues 1-289 of human CHK-1; 6xHis (C); made in house; host or cells: baculovirus/insect cell system
T2 sequence (O14757 1-289): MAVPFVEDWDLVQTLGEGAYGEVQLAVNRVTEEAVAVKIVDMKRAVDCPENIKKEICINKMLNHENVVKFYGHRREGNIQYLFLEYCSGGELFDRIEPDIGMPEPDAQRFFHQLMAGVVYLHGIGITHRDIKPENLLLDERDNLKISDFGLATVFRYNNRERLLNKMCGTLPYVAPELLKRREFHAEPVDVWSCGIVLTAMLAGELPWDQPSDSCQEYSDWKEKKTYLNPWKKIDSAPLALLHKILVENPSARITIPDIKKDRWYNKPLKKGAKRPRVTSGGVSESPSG
From the text: CHK-1 KH289 contains residues 1-289 of human CHK-1 including the kinase domain. It contains 6 histidine residues (6×His-tag) at the C-terminus of residue 289. The protein was expressed in a baculovirus/insect cell system and purified by conventional chromatographic techniques.
(§2) The production of ADP from ATP that accompanies phosphoryl transfer to the synthetic substrate peptide Syntide-2 ([…]) was coupled to oxidation of NADH using phosphoenolpyruvate (PEP) through the actions of pyruvate kinase (PK) and lactic dehydrogenase (LDH). The oxidation of NADH was monitored by following the decrease of absorbance at 340 nm (ε340=6.22 cm^−1 mM^−1) using a HP8452 spectrophotometer. Typical reaction solutions contained: 4 mM PEP; 0.15 mM NADH; 28 units of LDH/ml; 16 units of PK/ml; 3 mM DTT; 0.125 mM Syntide2Σ; 0.15 mM ATP; 25 mM MgCl2 in 50 mM TRIS, pH 7.5; and 400 mM NaCl. Assays were initiated with 10 nM of CHK-1 KH289. Ki values were determined by measuring initial enzyme activity in the presence of varying concentrations of test compounds. The data were analyzed using Enzyme Kinetic and Kaleidagraph software.

[3] = target: T3, CDS1/CHK-2 (CDS1 CE4) (Homo sapiens, UniProt O96017); assay: CDS1 assay (conditions identical to the CHK-1 assay); type: biochemical; details: 10 nM CDS1
T3 construct: CDS1 CE4 contains residues 209-502 including the kinase domain; 6xHis leader with thrombin site; first M absent from the expressed protein) (N); made in house; host or cells: E. coli
T3 sequence (O96017 209-502): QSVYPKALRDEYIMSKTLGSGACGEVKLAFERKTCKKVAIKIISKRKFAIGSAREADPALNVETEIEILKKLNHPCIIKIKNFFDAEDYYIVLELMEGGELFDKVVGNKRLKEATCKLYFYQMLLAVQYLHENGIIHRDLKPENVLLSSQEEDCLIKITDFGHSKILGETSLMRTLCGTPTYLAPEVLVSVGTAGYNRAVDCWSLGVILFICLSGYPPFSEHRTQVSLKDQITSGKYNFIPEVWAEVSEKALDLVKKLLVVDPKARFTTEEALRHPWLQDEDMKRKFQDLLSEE
From the text: CDS1 Construct for Assay: CDS1 CE4 contains residues 209-502 including the kinase domain of human CDS1/CHK-2 (GenBank accession number AFO86904, Matsuoka et al., Science, 282, 1893-97 (1998)). It contains the amino acid sequence: […] at the N-terminus of residue 209. (The first M is not present in the expressed protein due to post-translational processing of the N-terminus.) The protein was expressed in E. coli and purified by conventional chromatographic techniques.
as §2
The CDS 1 assay was prepared under identical conditions to that of the CHK-1 assay, except with the use of 10 nM of CDS1.

[4] = target: T4, phosphorylated VEGF-R2Δ50 (FLVK-P) (Homo sapiens, UniProt P35968, DEL940-989/E990V); assay: VEGF-R2 coupled spectrophotometric (FLVK-P) assay; type: biochemical; details: phosphorylated VEGF-R2Δ50, 1 mM ATP
T4 construct: VEGF-R2Δ50 contains residues 806-939 and 990-1171; made in house; host or cells: baculovirus/insect cell system
T4 sequence (P35968 with tags, fused parts or gaps DEL940-989/E990V limits assumed): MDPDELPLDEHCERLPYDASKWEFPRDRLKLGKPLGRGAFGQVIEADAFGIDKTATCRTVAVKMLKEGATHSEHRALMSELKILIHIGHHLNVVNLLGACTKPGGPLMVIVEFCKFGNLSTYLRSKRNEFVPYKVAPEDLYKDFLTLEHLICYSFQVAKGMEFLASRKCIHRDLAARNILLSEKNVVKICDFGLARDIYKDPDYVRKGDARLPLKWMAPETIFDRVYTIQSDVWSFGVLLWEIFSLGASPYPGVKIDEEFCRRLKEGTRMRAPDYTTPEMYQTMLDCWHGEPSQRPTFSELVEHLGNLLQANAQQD
From the text: VEGF-R2 Construct for Assay: A construct (VEGF-R2Δ50) of the cytosolic domain of human vascular endothelial growth factor receptor 2 (VEGF-R2) lacking the 50 central residues of the 68 residues of the kinase insert domain was expressed in a baculovirus/insect cell system. Of the 1356 residues of full-length VEGF-R2, VEGF-R2Δ50 contains residues 806-939 and 990-1171, and also one point mutation (E990V) within the kinase insert domain relative to wild-type VEGF-R2. See McTigue et al., Structure, 7, 319-330 (1999); U.S. patent application Ser. No. 09/390,326, filed Sep. 7, 1999. Autophosphorylation of the purified construct was performed by incubation of the enzyme at a concentration of 4 μM in the presence of 3 mM ATP and 40 mM MgCl2 in 100 mM Hepes, pH 7.5, containing 5% glycerol and 5 mM DTT, at 4° C. for 2 h. […] See Parast et al., Biochemistry, 37, 16788-16801 (1998).
Coupled Spectrophotometric (FLVK-P) Assay
The production of ADP from ATP that accompanies phosphoryl transfer was coupled to oxidation of NADH using phosphoenolpyruvate (PEP) and a system having pyruvate kinase (PK) and lactic dehydrogenase (LDH). The oxidation of NADH was monitored by following the decrease of absorbance at 340 nm (e340=6.22 cm^−1 mM^−1) using a Beckman DU 650 spectrophotometer. Assay conditions for phosphorylated VEGF-R2Δ50 (indicated as FLVK-P in the tables below) were the following: 1 mM PEP; 250 μM NADH; 50 units of LDH/mL; 20 units of PK/mL; 5 mM DTT; […]; 1 mM ATP; and 25 mM MgCl2 in 200 mM Hepes, pH 7.5. Assay conditions for unphosphorylated VEGF-R2Δ50 (indicated as FLVK in the tables) were the following: 1 mM PEP; 250 ,M NADH; 50 units of LDH/mL; 20 units of PK/mL; 5 mM DTT; 20 mM poly(E4Y1); 3 mM ATP; and 60 mM MgCl2 and 2 mM MnCl2 in 200 mM Hepes, pH 7.5. Assays were initiated with 5 to 40 nM of enzyme. Ki values were determined by measuring enzyme activity in the presence of varying concentrations of test compounds. The data were analyzed using Enzyme Kinetic and Kaleidagraph software.

[5] = target: CDK2/Cyclin A complex (Homo sapiens, UniProt P24941); assay: CDK2/Cyclin A assay (32P incorporation into Rb fragment); type: biochemical; details: apparent Ki; 150 nM CDK2/Cyclin A complex, 25 μM ATP
From the text: CDK2/Cyclin A Construct for Assay: CDK2 was purified using published methodology (Rosenblatt et al., J. Mol. Biol., 230, 1317-1319 (1993)) from insect cells that had been infected with a baculovirus expression vector. Cyclin A was purified from E. coli cells expressing full-length recombinant cyclin A, and a truncated cyclin A construct was generated by limited proteolysis and purified as described previously (Jeffrey et al., Nature, 376, 313-320 (1995)).
as §1
Cyclin-dependent kinase activity was measured by quantifying the enzyme-catalyzed, time-dependent incorporation of radioactive phosphate from [^32P]ATP into a recombinant fragment of the retinoblastoma protein. […] The phosphorylated substrate was then captured on a nitrocellulose membrane using a 96-well filtration manifold, and unincorporated radioactivity was removed by repeated washing with 0.85% phosphoric acid. Radioactivity was quantified by exposing the dried nitrocellulose membranes to a phosphorimager. Apparent Ki values were measured by assaying enzyme activity in the presence of different compound concentrations and subtracting the background radioactivity measured in the absence of enzyme. The kinetic parameters (kcat, Km for ATP) were measured for each enzyme under the usual assay conditions by determining the dependence of initial rates on ATP concentration. […]

[6] = test system: HCT 116 cells; assay: Inhibition of cell growth, MTT assay, HCT 116; type: cell-based; details: Homo sapiens, HCT-116, 144 h, four to six days incubation
Description: (§3) Inhibition of Cell Growth: Assessment of Anti-proliferation with U2-OS, SAOS2, HCT116 Cancer Cell Lines
(§4) Inhibition of cell growth was measured using the tetrazolium salt assay, which is based on the ability of viable cells to reduce 3-(4,5-dimethylthiazol-2-yl)-2,5-[2H]-diphenyltetrazolium bromide (MTT) to formazan (Mossman, J. Immunological Methods, 65, 55-58 (1983)). The water-insoluble purple formazan product was then detected spectrophotometrically. The HCT 116, U2-OS, and SAOS 2 cell lines were each grown in 96-well plates, respectively. Cells were plated in the appropriate medium at a volume of 135 μL/well in McCoy's 5A Medium. Plates were incubated for 4 h before addition of inhibitor compounds.
(§5) Different concentrations of inhibitor compounds were added in 0.5% (v/v) dimethylsulfoxide (μL/well), and cells were incubated at 37° C. (5% CO2) for four to six days (depending on cell type). At the end of the incubation, MTT was added to a final concentration of 0.2 mg/mL, and cells were incubated for 4 h more at 37° C. After centrifugation of the plates and removal of medium, the absorbance of the formazan (solubilized in dimethylsulfoxide) was measured at 540 nm. The concentration of inhibitor compound causing 50% inhibition of growth was determined from the linear portion of a semi-log plot of inhibitor concentration versus percentage inhibition. […]

[7] = test system: U2-OS cells; assay: Inhibition of cell growth, MTT assay, U2-OS; type: cell-based; details: Homo sapiens, U2OS, 144 h, four to six days incubation
Description: as §3, §4, §5

[8] = test system: SAOS 2 cells; assay: Inhibition of cell growth, MTT assay, SAOS 2; type: cell-based; details: Homo sapiens, SAOS-2, 144 h, four to six days incubation, read-out: SAOS2 IC50
Description: as §3, §4, §5

SMILES	Ki [1]	Ki [2]	Ki [3]	Ki [4]	melting point	Ki [5]	IC50 [6]	IC50 [7]	inhibition at 10 µM ([2]; at 10 μM, read-out: CHK-1 KH289 percent inhibition)	inhibition at 25 µM ([2]; at 25 μM, read-out: CHK-1 KH289 percent inhibition)	IC50 [8]
ON=C1c2cc(I)ccc2-c2cc3[nH]nnc3cc21 (mixture of isomers) [Example D, 9(E/Z)-Hydroxyimino-7-iodo-3H-fluoreno[2,3-d]-1,2,3-triazole]	1200 nM	0.166 µM	0.021 µM								
Nc1nc2cc3c(cc2[nH]1)-c1ccccc1C3=NO (mixture of isomers) [Example B, 2-Amino-9(E/Z)-hydroxyimino-3H-fluoreno[2,3-d]imidazole]	790 nM	5.8 µM		1900 nM	240 to 242 °C						
Nc1cc2c(cc1N)-c1ccccc1C2=NO [Comparison Ex. 2(b), reference compound]	3210 nM	8.1 µM	0.604 µM	923 nM							
Nc1cc2c(cc1[N+](=O)[O-])-c1ccccc1C2=NO [Comparison Ex. 2(a), reference compound]	1790 nM			15500 nM					14%		
ON=C1c2ccccc2-c2cc3[nH]cnc3cc21 (mixture of isomers) [Example A, 9(E/Z)-Hydroxyimino-3H-fluoreno[2,3-d]imidazole]	2360 nM	3.6 µM		1330 nM							

Further compounds by falling Ki [1], results first:

Ki [1]	Ki [2]	Ki [3]	Ki [4]	melting point	Ki [5]	IC50 [6]	IC50 [7]	inhibition at 10 µM ([2]; at 10 μM, read-out: CHK-1 KH289 percent inhibition)	inhibition at 25 µM ([2]; at 25 μM, read-out: CHK-1 KH289 percent inhibition)	SMILES	IC50 [8]
3620 nM		37 µM							33%	Nc1cc2c(cc1[N+](=O)[O-])-c1cc([N+](=O)[O-])c(N)cc1C2=NO [Comparison Ex. 2(c), reference compound]	
2100 nM	26.6 µM	15 µM	15900 nM							O/N=C1/c2ccccc2-c2nc3nonc3nc21 [Comparison Ex. 1, reference compound]	
213 nM	0.571 µM		1470 nM		680 nM	10.4 µM	18 µM			ON=C1c2ccccc2-c2cc3[nH]nnc3cc21 (mixture of isomers) [Example C, 9(E/Z)-Hydroxyimino-3H-fluoreno[2,3-d]-1,2,3-triazole]	11 µM
